Experimental data published in article PMC10003159, “Transcytosable Peptide-Paclitaxel Prodrug Nanoparticle for Targeted Treatment of Triple-Negative Breast Cancer” (International Journal of Molecular Sciences, 2023).
Where a SMILES comes first, the peptide text is derived from it. Where no end group is shown, it is not given here. The star is where a group is joined. X1 = CC(=O)O[C@H]1C(=O)[C@@]2(C)[C@H]([C@H](OC(=O)c3ccccc3)[C@]3(O)C[C@H](OC(=O)[C@H](OC(=O)CCC(=O)NCCN4C(=O)CC(*)C4=O)[C@@H](NC(=O)c4ccccc4)c4ccccc4)C(C)=C1C3(C)C)[C@]1(OC(C)=O)CO[C@@H]1C[C@@H]2O

B1: TAR peptide (peptide)
peptide: CRKKRRQRRRATWLPPR
notes: also called fused peptide TAR; bifunctional fusion peptide of TAT and A7R; source: synthetic peptide (China Peptide Co., Ltd.)

What was measured:
4T1-mCherry-Luc cells = assay: Wound healing migration assay; format: cell-based; conditions: 24 h, mean ± SEM, n = 3
Experimental: The effect of PTX-SM-TAR NPs and PTX on 4T1-mCherry-Luc cell migration was evaluated with wound-healing assay. 4T1-mCherry-Luc cells were seeded in 6-well plates at a density of 3 × 10^5 cells per well. After overnight culture, the cells were wounded linearly by a 200 µL pipette tip. […] Images of 0 and 24 h were captured by an inverted microscope.

4T1-mCherry-Luc tumor = assay: In vivo antitumor efficacy, subcutaneous TNBC model; design: species or system mice; conditions: tail vein every two days, 16 d, n = 7
Experimental: Healthy female BALB/c mice (18–20 g) were purchased from Shandong University Laboratory Animal Center. Mice were housed in a pathogen-free environment under conditions of 25 ± 2 °C, 50 ± 5% relative humidity, and 12-h light/dark cycles. They were provided with food and water ad libitum. All animal experiment protocols were approved by the Ethics Committee of School of Pharmaceutical Sciences, Shandong University (22017) and implemented according to the regulations of the Shandong Council on Animal Care. To establish the mice TNBC model, 1.0 × 10^6 4T1-mCherry-Luc cells were subcutaneously injected into the left forelimb armpit of mice. […] solution was injected into mice through the abdominal and reacted with 4T1-mCherry-Luc cells to produce bioluminescence. Then, the fluorescence signals were observed and counted by an IVIS Spectrum imaging system (IVIS Kinetic).
Four days after tumor cell implantation, mice were randomly divided into four groups (n = 7). Seven mice in each group, a total of twenty-eight mice were used. Then, saline, TAR peptide (10.6 mg/kg), PTX (4 mg/kg), and PTX-SM-TAR NPs (15.6 mg/kg) were injected through the tail vein every two days. Tumor size and body weight were measured every 4 d. After 16 d of treatment, mice were sacrificed and tumors were removed, weighed, and further analyzed.

EA.hy926 cells = assay: Cytotoxicity against normal cells; format: cell-based; conditions: Figure S5, n = 3
[1] = tested on: 4T1-mCherry-Luc 3D tumor spheroids; assay: Penetration in 3D tumor spheroids; format: cell-based; conditions: 4 h incubation, LSCM, scanned at 10 μm interval
Experimental: After adding 150–200 μL of 2% agarose solution to each well, the 48-well plate was placed on the ultra-clean bench under UV irradiation for 30 min before solidification. The 4T1-mCherry-Luc cells were planted into the plate at the density of 4 × 10^4 cells per well and cultured in the incubator for one week. After the cells aggregated into spherical shapes, tumor spheroids were transferred to confocal dishes and incubated with PTX-SM-TAR/C6 NPs and coumarin-6 solution for 2 and 4 h. The tumor spheroids were washed with PBS, fixed with 4% paraformaldehyde for 30 min, and observed with LSCM.

Neuropilin 1 (NRP-1) = Neuropilin 1 (NRP-1) (UniProt O14786 22-923, The paper says only 'purified NRP-1 protein', immobilized on a CM5 chip. Species, construct and supplier are not printed. Human ectodomain (signal peptide removed, extracellular 22-856) is taken by co); assay: SPR; Biacore T200; purified NRP-1 immobilised on a CM5 chip; gradient-diluted TAR peptide flowed over; HBS-EP running buffer; conditions: both partners purified
Neuropilin 1 (NRP-1), sequence (O14786 22-923): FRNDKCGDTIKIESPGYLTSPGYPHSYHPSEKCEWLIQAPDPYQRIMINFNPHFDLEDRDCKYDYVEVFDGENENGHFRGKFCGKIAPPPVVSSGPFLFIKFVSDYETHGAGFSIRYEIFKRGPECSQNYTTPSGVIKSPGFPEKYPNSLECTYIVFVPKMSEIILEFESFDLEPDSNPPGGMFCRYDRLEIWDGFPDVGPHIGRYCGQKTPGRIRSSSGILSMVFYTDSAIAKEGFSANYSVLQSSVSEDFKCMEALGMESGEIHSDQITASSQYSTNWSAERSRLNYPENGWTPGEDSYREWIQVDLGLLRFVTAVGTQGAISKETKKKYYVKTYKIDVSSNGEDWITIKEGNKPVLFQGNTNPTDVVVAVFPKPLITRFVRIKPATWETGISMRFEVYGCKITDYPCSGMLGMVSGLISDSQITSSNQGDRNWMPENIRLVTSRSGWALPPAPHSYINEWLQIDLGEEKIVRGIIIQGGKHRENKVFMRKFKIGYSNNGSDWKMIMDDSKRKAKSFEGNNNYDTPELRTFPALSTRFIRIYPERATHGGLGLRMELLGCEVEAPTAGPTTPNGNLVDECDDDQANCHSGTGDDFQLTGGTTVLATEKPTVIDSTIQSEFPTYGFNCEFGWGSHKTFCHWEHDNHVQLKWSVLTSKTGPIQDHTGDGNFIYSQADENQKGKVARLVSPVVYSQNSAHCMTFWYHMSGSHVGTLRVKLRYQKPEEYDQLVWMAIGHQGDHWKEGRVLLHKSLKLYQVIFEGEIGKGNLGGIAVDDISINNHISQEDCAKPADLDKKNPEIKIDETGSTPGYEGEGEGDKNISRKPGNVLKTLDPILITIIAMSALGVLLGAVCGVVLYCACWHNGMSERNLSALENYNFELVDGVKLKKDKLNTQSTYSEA

| Molecule | body weight of mice during the experiment (4T1-mCherry-Luc tumor) | toxicity to normal cells (EA.hy926 cells) | other results |
| --- | --- | --- | --- |
| CC(=O)O[C@H]1C(=O)[C@@]2(C)[C@H]([C@H](OC(=O)c3ccccc3)[C@]3(O)C[C@H](OC(=O)[C@H](O)[C@@H](NC(=O)c4ccccc4)c4ccccc4)C(C)=C1C3(C)C)[C@]1(OC(C)=O)CO[C@@H]1C[C@@H]2O [PTX, paclitaxel] | remained stable | slight toxicity to normal cells in the low-concentration | migration rate (4T1-mCherry-Luc cells; 10 nM): 32.53 ± 1.43%; migration rate (4T1-mCherry-Luc cells; 100 nM): 18.96 ± 2.76%; tumor inhibition rate (4T1-mCherry-Luc tumor; TAR 10.6 mg/kg, PTX 4 mg/kg, PTX-SM-TAR NPs 15.6 mg/kg, tumor weight): 28.47% |
| CC(=O)O[C@H]1C(=O)[C@@]2(C)[C@H]([C@H](OC(=O)c3ccccc3)[C@]3(O)C[C@H](OC(=O)[C@H](OC(=O)CCC(=O)NCCN4C(=O)CC(SC[C@H](N)C(=O)N[C@@H](CCCNC(=N)N)C(=O)N[C@@H](CCCCN)C(=O)N[C@@H](CCCCN)C(=O)N[C@@H](CCCNC(=N)N)C(=O)N[C@@H](CCCNC(=N)N)C(=O)N[C@@H](CCC(N)=O)C(=O)N[C@@H](CCCNC(=N)N)C(=O)N[C@@H](CCCNC(=N)N)C(=O)N[C@@H](CCCNC(=N)N)C(=O)N[C@@H](C)C(=O)N[C@H](C(=O)N[C@@H](Cc5c[nH]c6ccccc56)C(=O)N[C@@H](CC(C)C)C(=O)N5CCC[C@H]5C(=O)N5CCC[C@H]5C(=O)N[C@@H](CCCNC(=N)N)C(=O)O)[C@@H](C)O)C4=O)[C@@H](NC(=O)c4ccccc4)c4ccccc4)C(C)=C1C3(C)C)[C@]1(OC(C)=O)CO[C@@H]1C[C@@H]2O (stereo partly shown) [PTX-SM-TAR NPs] (H-C(X1)RKKRRQRRRATWLPPR-OH) | remained stable | same trend as the PTX | – |
| CCN(CC)c1ccc2cc(-c3nc4ccccc4s3)c(=O)oc2c1 [coumarin-6] | – | – | fluorescence distribution in tumor spheroids along Z-axis [1]: gradually disappeared after the Z-axis exceeded 60 μm |
| CRKKRRQRRRATWLPPR [TAR] | remained stable | – | – |
| B1 | – | – | Kd (Neuropilin 1 (NRP-1)): 34 nM |
